In patent publication US20110039721A1, “METHOD FOR PREDICTION ABOUT CARCINOGENICITY OF SUBSTANCE IN RODENT” (Chemicals Evaluation and Research Institute, priority 2007, published 2011):

Tested on: mRNA expressed from the genes (A) to (D) in rat liver
Experiment: Behavior of genes (mRNA expression level, oligo-DNA microarray) in rat liver after 28-day oral administration
Type: in vivo
Experimental: A test solution was prepared by dissolving each of the carcinogens and the non-carcinogens shown in Tables 2 to 6 in the corresponding solvent shown in Tables 2 to 6. Each of the thus prepared test solutions and the solvents used for the preparation was administered by oral gavage to rats in each group. As the rats, male rats (F344 SPF rats) at 5 weeks of age obtained from Charles River Laboratories Japan, Inc. were used. The animals were divided into groups, each containing four individuals. The volume of the solvent administered to the vehicle control group was set to the same volume as that of the test solution administered to the carcinogen administration group or the non-carcinogen administration group. The administration of the test solution or the solvent was performed once daily for 28 days. Apiece was excised from the liver of each of the rats after a lapse of 28 days from the initiation of the administration, and the total RNA was extracted and purified.
The expression level of mRNA was compared between each of the chemical substance administration groups and the corresponding vehicle control group, and genes that satisfy the requirements described in (A) to (D) were selected, respectively.
The case where the expression level of mRNA in the carcinogen administration group or the non-carcinogen administration group is 1.5 times or more or 1/1.5 or less of the expression level of the corresponding mRNA expressed in the control group was determined to be significant. In this connection, the determination as to whether or not the change is significant was performed by taking into consideration the direction of increase or decrease in the expression level. In the case where the direction of increase or decrease is different as compared with the case where another carcinogen was administered, the change was determined to be not significant.

[1] = gene group (A), Unigene No. Rn.167075
[2] = gene group (C), Unigene No. Rn.120914
[3] = (C), Unigene Rn.120914, defined direction +, rat liver, oral once daily 28 days

SMILES: COc1ccc2c(c1)c(CC(=O)O)c(C)n2C(=O)c1ccc(Cl)cc1 [TS085, Indomethacin]
- Behavior of gene caused by administration of chemical substance, Gene No. 4846 (gene group (A), Unigene No. Rn.144554): −
- Behavior of gene caused by administration of chemical substance, Gene No. 2026 [1]: −
- Behavior of gene caused by administration of chemical substance, Gene No. 4218 [1]: −
- Behavior of gene caused by administration of chemical substance, Gene No. 6182 (gene group (A), Unigene No. Rn.5834): −
- Behavior of gene caused by administration of chemical substance, Gene No. 5600 (gene group (A), Unigene No. Rn.9836): −
- Behavior of gene caused by administration of chemical substance, Gene No. 1494 (gene group (B), Unigene No. Rn.1430): −
- Behavior of gene caused by administration of chemical substance, Gene No. 2045 (gene group (B), Unigene No. Rn.19329): −
- Behavior of gene caused by administration of chemical substance, Gene No. 2203 (gene group (B), Unigene No. Rn.21240): −
- Behavior of gene caused by administration of chemical substance, Gene No. 533 (gene group (C), Unigene No. Rn.106184): −
- Behavior of gene caused by administration of chemical substance, Gene No. 725 (gene group (C), Unigene No. Rn.108075): −
- Behavior of gene caused by administration of chemical substance, Gene No. 1163 (gene group (C), Unigene No. Rn.11766): −
- Behavior of gene caused by administration of chemical substance, Gene No. 4973 (gene group (C), Unigene No. Rn.118529): −
- Behavior of gene caused by administration of chemical substance, Gene No. 4095 (gene group (C), Unigene No. Rn.119024): −
- Behavior of gene caused by administration of chemical substance, Gene No. 1334 [2]: −
- Behavior of gene caused by administration of chemical substance, Gene No. 6620 [2]: −
- Behavior of gene caused by administration of chemical substance, Gene No. 6303 (gene group (C), Unigene No. Rn.123063): −
- Behavior of gene caused by administration of chemical substance, Gene No. 5878 (gene group (C), Unigene No. Rn.143213): −
- Behavior of gene caused by administration of chemical substance, Gene No. 1131 (gene group (C), Unigene No. Rn.144946): −
- Behavior of gene caused by administration of chemical substance, Gene No. 1562 (gene group (C), Unigene No. Rn.14744): −
- Behavior of gene caused by administration of chemical substance, Gene No. 1741 (gene group (C), Unigene No. Rn.1647): −
- Behavior of gene caused by administration of chemical substance, Gene No. 893 (gene group (C), Unigene No. Rn.164817): −
- Behavior of gene caused by administration of chemical substance, Gene No. 6026 (gene group (C), Unigene No. Rn.167685): −
- Behavior of gene caused by administration of chemical substance, Gene No. 154 (gene group (C), Unigene No. Rn.185941): −
- Behavior of gene caused by administration of chemical substance, Gene No. 1993 (gene group (C), Unigene No. Rn.18728): −
- Behavior of gene caused by administration of chemical substance, Gene No. 813 (gene group (C), Unigene No. Rn.201760): −
- Behavior of gene caused by administration of chemical substance, Gene No. 2494 (gene group (C), Unigene No. Rn.23969): −
- Behavior of gene caused by administration of chemical substance, Gene No. 2546 (gene group (C), Unigene No. Rn.24561): −
- Behavior of gene caused by administration of chemical substance, Gene No. 3776 (gene group (C), Unigene No. Rn.43232): −
- Behavior of gene caused by administration of chemical substance, Gene No. 3929 (gene group (C), Unigene No. Rn.4620): −
- Behavior of gene caused by administration of chemical substance, Gene No. 1119 (gene group (C), Unigene No. Rn.9757): −
- Behavior of gene caused by administration of chemical substance, Gene No. 6742 (gene group (C), Unigene No. Rn.9779): −
- Behavior of gene caused by administration of chemical substance, Gene No. 5634 (gene group (C), Unigene No. Rn.9862): −
- Behavior of gene caused by administration of chemical substance, Gene No. 5726 (gene group (D), Unigene No. Rn.9939): −

SMILES: COC(N)=O [TS029, Methyl carbamate]
- Behavior of gene caused by administration of chemical substance, Gene No. 4846 ((A), Unigene Rn.144554, defined direction +, rat liver, oral once daily 28 days): +
- Behavior of gene caused by administration of chemical substance, Gene No. 4218 ((A), Unigene Rn.167075, defined direction +, rat liver, oral once daily 28 days, significant = 1.5 times or more or 1/1.5 or less of control): +
- Behavior of gene caused by administration of chemical substance, Gene No. 2026 ((A), Unigene Rn.167075, defined direction −, rat liver, oral once daily 28 days): +
- Behavior of gene caused by administration of chemical substance, Gene No. 6182 ((A), Unigene Rn.5834, defined direction +, rat liver, oral once daily 28 days): +
- Behavior of gene caused by administration of chemical substance, Gene No. 5600 ((A), Unigene Rn.9836, defined direction +, rat liver, oral once daily 28 days): +
- Behavior of gene caused by administration of chemical substance, Gene No. 1494 ((B), Unigene Rn.1430, defined direction −, rat liver, oral once daily 28 days): +
- Behavior of gene caused by administration of chemical substance, Gene No. 2045 ((B), Unigene Rn.19329, defined direction +, rat liver, oral once daily 28 days): −
- Behavior of gene caused by administration of chemical substance, Gene No. 2203 ((B), Unigene Rn.21240, defined direction +, rat liver, oral once daily 28 days): −
- Behavior of gene caused by administration of chemical substance, Gene No. 533 ((C), Unigene Rn.106184, defined direction +, rat liver, oral once daily 28 days): +
- Behavior of gene caused by administration of chemical substance, Gene No. 725 ((C), Unigene Rn.108075, defined direction −, rat liver, oral once daily 28 days): −
- Behavior of gene caused by administration of chemical substance, Gene No. 1163 ((C), Unigene Rn.11766, defined direction +, rat liver, oral once daily 28 days): −
- Behavior of gene caused by administration of chemical substance, Gene No. 4973 ((C), Unigene Rn.118529, defined direction −, rat liver, oral once daily 28 days): −
- Behavior of gene caused by administration of chemical substance, Gene No. 4095 ((C), Unigene Rn.119024, defined direction −, rat liver, oral once daily 28 days): −
- Behavior of gene caused by administration of chemical substance, Gene No. 1334 [3]: −
- Behavior of gene caused by administration of chemical substance, Gene No. 6620 [3]: −
- Behavior of gene caused by administration of chemical substance, Gene No. 6303 ((C), Unigene Rn.123063, defined direction −, rat liver, oral once daily 28 days): +
- Behavior of gene caused by administration of chemical substance, Gene No. 5878 ((C), Unigene Rn.143213, defined direction −, rat liver, oral once daily 28 days): −
- Behavior of gene caused by administration of chemical substance, Gene No. 1131 ((C), Unigene Rn.144946, defined direction −, rat liver, oral once daily 28 days): −
- Behavior of gene caused by administration of chemical substance, Gene No. 1562 ((C), Unigene Rn.14744, defined direction −, rat liver, oral once daily 28 days): +
- Behavior of gene caused by administration of chemical substance, Gene No. 1741 ((C), Unigene Rn.1647, defined direction −, rat liver, oral once daily 28 days): +
- Behavior of gene caused by administration of chemical substance, Gene No. 893 ((C), Unigene Rn.164817, defined direction +, rat liver, oral once daily 28 days): −
- Behavior of gene caused by administration of chemical substance, Gene No. 6026 ((C), Unigene Rn.167685, defined direction −, rat liver, oral once daily 28 days): −
- Behavior of gene caused by administration of chemical substance, Gene No. 154 ((C), Unigene Rn.185941, defined direction −, rat liver, oral once daily 28 days): +
- Behavior of gene caused by administration of chemical substance, Gene No. 1993 ((C), Unigene Rn.18728, defined direction −, rat liver, oral once daily 28 days): +
- Behavior of gene caused by administration of chemical substance, Gene No. 813 ((C), Unigene Rn.201760, defined direction +, rat liver, oral once daily 28 days): −
- Behavior of gene caused by administration of chemical substance, Gene No. 2494 ((C), Unigene Rn.23969, defined direction +, rat liver, oral once daily 28 days): −
- Behavior of gene caused by administration of chemical substance, Gene No. 2546 ((C), Unigene Rn.24561, defined direction −, rat liver, oral once daily 28 days): −
- Behavior of gene caused by administration of chemical substance, Gene No. 3776 ((C), Unigene Rn.43232, defined direction −, rat liver, oral once daily 28 days): +
- Behavior of gene caused by administration of chemical substance, Gene No. 3929 ((C), Unigene Rn.4620, defined direction +, rat liver, oral once daily 28 days): −
- Behavior of gene caused by administration of chemical substance, Gene No. 1119 ((C), Unigene Rn.9757, defined direction +, rat liver, oral once daily 28 days): −
- Behavior of gene caused by administration of chemical substance, Gene No. 6742 ((C), Unigene Rn.9779, defined direction +, rat liver, oral once daily 28 days): −
- Behavior of gene caused by administration of chemical substance, Gene No. 5634 ((C), Unigene Rn.9862, defined direction −, rat liver, oral once daily 28 days): −
- Behavior of gene caused by administration of chemical substance, Gene No. 5726 ((D), Unigene Rn.9939, defined direction −, rat liver, oral once daily 28 days): −
